Test results taken from patent US20080267947A1, “Cancer therapy with cantharidin and cantharidin analogs” (priority 2006, published 2008).
Like-named read-outs stand apart in the source and are kept apart here.

Tests used:
MV4; 11 cells = test: XTT time course of killing of MV4;11 cells; format: cell-based; details: at 72 hours
Protocol: (§1) Determination of cell viability using the XTT assay: In some cases, CD34+ cells are isolated from human cord blood using magnetic beads coated with anti-CD34 antibody. Isolated cells are then counted and aliquoted into 96-well plates and then incubated in the presence of varying concentrations of cantharidin or norcantharidin. Cell viability it measured by the addition of the XTT calorimetric reagent. Viability is determined by the absorbance of treated cultures at approximately 450-500 nm compared to untreated cultures. In other cases, the cells used in the assay may be a leukemia cell line, such as MV4; 11. The assay can also be used to determine the time course of cell killing by various compounds by performing the XTT assay on cultures that are incubated with the compounds for varying periods of time.
The XTT assay was used to determine the time course of killing of MV4; 11 cells incubated with cantharidin and norcantharidin over time.
Cantharidin was dissolved in DMSO at different concentrations to ensure that final concentrations of DMSO are equivalent in all wells. To control for potential cytotoxic effects of DMSO itself, an equivalent amount of DMSO containing no drug was used as a control.
Norcantharidin was dissolved in DMSO at different concentrations to ensure that final concentrations of DMSO are equivalent in all wells. To control for potential cytotoxic effects of DMSO itself, an equivalent amount of DMSO containing no drug was used as a control.

MV4; 11 leukemia cells = test: XTT cytotoxicity assay on MV4;11 leukemia cells, 5 days exposure; format: cell-based; details: 5 days of exposure to drug, read-out: IC50, cytotoxicity against MV4;11 leukemia cells (XTT)
Protocol: as §1
The cytotoxicity of Cantharidin and Norcantharidin against MV4; 11 leukemia cells was measured by a calorimetric assay using XTT. MV4; 11 cells were plated in 96-well plates and the following day, cells were exposed to varying doses of cantharidin and norcantharidin. After 5 days of exposure to drugs, 50 μL of 1 mg/mL XTT and 0.025 mM phenazine methosulfate (PMS) were added. The absorbance of the supernatant was measured at 450 and 630 nm of wells not treated with drug (with cells) as 100% and wells without cells as 0%.

[1] = test system: CD34+ cells from normal human cord blood; test: XTT colorimetric cytotoxicity assay on cord blood CD34+ cells; format: cell-based; details: FIG. 1, read-out: IC50, cytotoxicity against CD34+ cells (XTT)
Protocol: as §1
(§2) CD34^+ cells were obtained from normal human cord blood by magnetic bead selection using anti-CD34 antibody coated beads. The cytotoxicity of cantharidin and norcantharidin against these cells was measured by a colorimetric assay using XTT (sodium 3′-{1-[(phenylamino)-carbonyl]-3,4-tetrazolium}-bis(4-methoxy-6-nitro) benzene-sulfonic acid hydrate). […] The absorbance of the supernatant was measured at 450 and 630 nm of wells without drug (with cells) as 100% and wells without cells as 0%. […]

[2] = test system: CD34+ cells obtained from a leukemia patient (leukemic cancer stem cells); test: Cobblestone area forming cell (CAFC) assay, leukemia patient versus cord blood CD34+ cells; format: cell-based, human; details: 10 μM and 75 μM overnight; for sensitivity of leukemia cancer stem cells relative to normal stem cells (cord blood CD34+): CAFC, 5 weeks; for activity against leukemic cancer stem cells (cobblestone area counts vs control): cobblestone areas counted after 5 weeks on MS-5 monolayer, FIGS. 2 and 3
Protocol: (§3) Cobblestone assay: The cobblestone area-forming cell (CAFC) assay exploits a reproducible visual end point for the quantitation of cancer stem cells. Leukemia samples are added to adherent cultures of stromal cells, some embodiments MS-5 stromal cells. The cancer stem cells in the culture will migrate below the MS-5 stromal cells and form a colony of cells called a cobblestone that can be visual quantitated. To test the effect of cantharidin or norcantharidin on the cancer stem cell population using this assay, cells are first cultured in the presence of the drug. In some embodiments the cells are cultured for 16 hours. After this incubation, the cells are added to the stromal cultures. A reduction in the cobblestone area formation in cultures that were treated with the drug compared to the untreated cells represents cancer stem cell activity for the drug.
Cells were treated with 10 μM and 75 μM cantharidin or norcantharidin overnight. To assay for stem cells by the cobblestone area forming cell (CAFC) assay, CD34^+ cells subsequent to drug treatment were co-cultured with the MS-5 monolayer in X-Eagle minimum essential medium (α-MEM) containing 10% heat-inactivated FCS, 10% horse serum, 1×10^−6 M hydrocortisone, 2 mM L-glutamine, and 100 U/mL penicillin/streptomycin. After 5 weeks in culture, total cobblestone areas were counted. FIGS. 2 and 3 show bar graphs representing cobblestone area counts in the presence of no drug (control) and 10 and 75 μM of cantharidin and norcantharidin, respectively, using CD34+ cells obtained from a leukemia patient, and CD34+normal stem cells isolated from human cord blood.

[3] = XTT colorimetric cytotoxicity assay on cord blood CD34+ cells; format: cell-based; details: CD34+ cells from normal human cord blood; FIG. 1; read-out: IC50, cytotoxicity against CD34+ cells (XTT)
Protocol: as §1, §2

[4] = test system: leukemia stem cells from bone marrow of a patient with acute myelgenous leukemia (AML); test: CAFC assay of leukemia stem cells treated with cantharidin and standard chemotherapy; format: cell-based, human; details: 16 hours treatment, each of the concentrations tested; cobblestone areas after 5 weeks; FIG. 6
Protocol: as §3
Samples of primary human cord blood as well as from the bone marrow of a patient with acute myelgenous leukemia (AML) were tested. Cantharidin and norcantharidin were dissolved in DMSO, and Ara-c and daunorubicin were prepared according to the supplier's instructions. In addition, untreated controls (diluent alone) for both normal and leukemic CD34+ cells were also tested. Cells were treated with varying concentrations of drug for 16 hours. […] After 5 weeks in culture, total cobblestone areas were counted visually using a microscope.

| SMILES | cell viability of MV4;11 cells (MV4; 11 cells; 30 μM) | cell viability of MV4;11 cells (MV4; 11 cells; 100 μM) | IC50 (MV4; 11 leukemia cells) | IC50 [1] | sensitivity of leukemia cancer stem cells relative to normal stem cells (cord blood CD34+) [2] | activity against leukemic cancer stem cells (cobblestone area counts vs control) [2] | viability at 30 µM (MV4; 11 cells; Homo sapiens, MV4-11, 30 μM, read-out: cell viability of MV4;11 cells) | viability at 100 µM (MV4; 11 cells; Homo sapiens, MV4-11, 100 μM, read-out: cell viability of MV4;11 cells) | IC50 (MV4; 11 leukemia cells; Homo sapiens, MV4-11, 120 h) | IC50 [3] | sensitivity of leukemia stem cells compared with cytarabine or daunorubicin (CAFC) [4] |
| --- | --- | --- | --- | --- | --- | --- | --- | --- | --- | --- | --- |
| O=C1OC(=O)[C@H]2[C@@H]1[C@@H]1CC[C@H]2O1 [norcantharidin] | less than 10% | less than 10% | 24 µM | 52 µM | increased sensitivity | potent activity | – | – | – | – | – |
| C[C@@]12C(=O)OC(=O)[C@]1(C)[C@H]1CC[C@@H]2O1 [cantharidin] | – | – | – | – | increased sensitivity | potent activity | < 10% | < 10% | 7.5 µM | 6.5 µM | more sensitive |
